Assay results reported in PMC3989197, “A Novel Carbonyl Reductase with Anti-Prelog Stereospecificity from Acetobacter sp. CCTCC M209061: Purification and Characterization” (PLoS ONE, 2014).
Each block holds one molecule with its values, some of them ahead of it.

Experiments:
[1] = tested on: T1, AcCR (carbonyl reductase); experiment: spectrophotometric initial rate at […] nm; assay type: biochemical, Acetobacter sp. CCTCC M209061
T1 construct: native purification from Acetobacter cells (ammonium sulfate, DEAE-Sepharose, Native-PAGE); homotetramer 104 kDa, subunit 27 kDa

[2] = tested on: T1, AcCR (carbonyl reductase); experiment: spectrophotometric initial rate at […] nm; Hill fit; assay type: biochemical, Acetobacter sp. CCTCC M209061; conditions: NADH-linked reduction (NADH fixed 1 mM), pH 5.0, 25°C; sigmoidal, cooperative
[3] = target: carbonyl reductase from Acetobacter sp. CCTCC M209061 (AcCR) (Acetobacter sp. CCTCC M209061); experiment: SEC; gel permeation on Superdex G-200, 50 mM phosphate buffer pH 7.0 with 0.15 M NaCl, 0.2 ml/min, calibrated with mass markers; apparent native mass (104 kDa) compared with the subunit mass by SDS-PAGE (27 kDa)
[4] = oxidation of isopropanol (fixed 110 mM), pH 8.0, 35°C

Molecule: CC(=O)c1ccc(Cl)cc1 [4′-chloroacetophenone]
Km ([1]; NADPH-linked reduction (NADPH fixed 0.1 mM), pH 7.5, 25°C): 2960 ± 87 µM
Km [2]: 4130 ± 157 µM

Molecule: NC(=O)C1=CN([C@@H]2O[C@H](COP(=O)(O)OP(=O)(O)OC[C@H]3O[C@@H](n4cnc5c(N)ncnc54)[C@H](O)[C@@H]3O)[C@@H](O)[C@H]2O)C=CC1 [NADH]
Km ([1]; reduction of 4′-chloroacetophenone (fixed 5 mM), pH 5.0, 25°C): 660 ± 21 µM

Molecule: NC(=O)c1ccc[n+]([C@@H]2O[C@H](COP(=O)(O)OP(=O)(O)OC[C@H]3O[C@@H](n4cnc5c(N)ncnc54)[C@H](O)[C@@H]3O)[C@@H](O)[C@H]2O)c1 [NAD^+]
Km [1, 4]: 1330 ± 45 µM

Molecule: NC(=O)c1ccc[n+]([C@@H]2O[C@H](COP(=O)(O)OP(=O)(O)OC[C@H]3O[C@@H](n4cnc5c(N)ncnc54)[C@H](OP(=O)(O)O)[C@@H]3O)[C@@H](O)[C@H]2O)c1 [NADP^+]
Km [1, 4]: 1120 ± 35 µM

Molecule: NC(=O)C1=CN([C@@H]2O[C@H](COP(=O)(O)OP(=O)(O)OC[C@H]3O[C@@H](n4cnc5c(N)ncnc54)[C@H](OP(=O)(O)O)[C@@H]3O)[C@@H](O)[C@H]2O)C=CC1 [NADPH]
Km ([1]; reduction of 4′-chloroacetophenone (fixed 5 mM), pH 7.5, 25°C): 26 ± 1 µM

Now from value to molecule:

Km ([1]; NAD+-linked oxidation (NAD+ fixed 5 mM), pH 8.0, 35°C): 48300 ± 986 µM
Molecule: CC(C)O [isopropanol]

stoichiometry N [3]: 4
Molecule: carbonyl reductase from Acetobacter sp. CCTCC M209061 (AcCR) (enzyme)
